One may read the IC50 as the concentration that gives 50% inhibition. A higher IC50 goes with weaker potency in that assay. The term IC90 denotes the point of the concentration-response curve where the effect stands at 90%.

Series [1] is described as follows: Protein binding in human plasma at 600 mg, administered twice a day. The format is ADME, cell-free. The conditions noted are these: read-out: PPB (converted).
Series [2] is described as follows: in vitro. The settings on record: mouse, BaF3 cells.
Series [3] can be described thus: Toxicity in CB-17/SCID mouse implanted with ALK positive mouse BaF3 cells expressing EML4-ALK G1202R mutant assessed as effect on body weight at 60 mg/kg, po administered once daily and measured after 6 days. The series is classed as organism-based. The conditions noted are these: in vivo, 144 h, time 6 day.
A short description of series [4]: Average plasma concentration in CB-17/SCID mouse implanted with mouse BaF3 cells expressing EML4-ALK G1202R mutant at 60 mg/kg, po administered once daily for 7 days by LC-MS/MS analysis. The conditions noted are these: in vivo, 168 h, time 7 day. The series is classed as ADME, organism-based.
For series [5], the system named is BaF3. Put plainly: Antitumor activity against mouse BaF3 cells expressing native EML4-ALK implanted in mouse assessed as tumor regression at 60 mg/kg, po administered once daily and measured after 8 days relative to control. The format is functional. The conditions noted are these: time 8 day.
The nature of series [6]: Protein binding in human plasma assessed as unbound fraction at 600 mg, administered twice a day. The series is classed as ADME, cell-free.
Series [7] concerns BaF3. Put plainly: animal or person. The conditions noted are these: Mus musculus, BaF3, po, 192 h, read-out: TGI.
Series [8] in a line: Toxicity in CB-17/SCID mouse implanted with ALK positive mouse BaF3 cells expressing EML4-ALK G1202R mutant assessed as effect on body weight at 50 mg/kg, po administered once daily and measured after 6 days. The format is organism-based. The settings on record: in vivo, 144 h, time 6 day.
For series [9], the system named is EML4-ALK (Homo sapiens), Q9UM73+Q9HC35 [G1202R]. The settings on record: BaF3, dose 1000.0 nmol/L, time 3-5 weeks.
Series [10] relates to EML4-ALK (Homo sapiens), Q9UM73+Q9HC35 [D1203N]. The settings on record: BaF3, dose 1000.0 nmol/L, time 3-5 weeks.
Series [11] deals with EML4-ALK (Homo sapiens), Q9UM73+Q9HC35 [G1202R]. The settings on record: BaF3, time 3-5 weeks.
Series [12] is described as follows: Protein binding in human plasma at 750 mg, administered once a day. The format is ADME, cell-free. The conditions noted are these: read-out: PPB (converted).
Series [13] relates to EML4-ALK (Homo sapiens), Q9UM73+Q9HC35 [F1174V]. The conditions noted are these: BaF3, dose 1000.0 nmol/L, time 3-5 weeks.
A short description of series [14]: Protein binding in human plasma assessed as unbound fraction at 750 mg, administered once a day. The series is classed as ADME, cell-free.
Series [15] concerns EML4-ALK (Homo sapiens), Q9UM73+Q9HC35 [C1156Y]. The settings on record: BaF3, dose 1000.0 nmol/L, time 3-5 weeks.
In series [16] the test system is EML4-ALK (Homo sapiens), Q9UM73+Q9HC35 [L1152P]. The conditions noted are these: BaF3, dose 1000.0 nmol/L, time 3-5 weeks.
Series [17] has the same test system. The settings on record: BaF3, time 3-5 weeks.
The subject of series [18] is EML4-ALK (Homo sapiens), Q9UM73+Q9HC35 [V1180L]. The settings on record: BaF3, dose 1000.0 nmol/L, time 3-5 weeks.
For series [19], the system named is EML4-ALK (Homo sapiens), Q9UM73+Q9HC35 [L1198F]. The conditions noted are these: BaF3, dose 1000.0 nmol/L, time 3-5 weeks.
The test system of series [20] is EML4-ALK (Homo sapiens), Q9UM73+Q9HC35 [F1174C]. The settings on record: BaF3, dose 1000.0 nmol/L, time 3-5 weeks.
Series [21] has as its system EML4-ALK (Homo sapiens), Q9UM73+Q9HC35 [L1198F]. The conditions noted are these: BaF3, dose 200.0 nmol/L, time 3-5 weeks.
In series [22] the test system is EML4-ALK (Homo sapiens), Q9UM73+Q9HC35 [F1174L]. The settings on record: BaF3, dose 1000.0 nmol/L, time 3-5 weeks.
For series [23], the system named is EML4-ALK (Homo sapiens), Q9UM73+Q9HC35 [F1174C]. The settings on record: BaF3, dose 200.0 nmol/L, time 3-5 weeks.
The test system is the same in series [24]. The settings on record: BaF3, time 3-5 weeks.
Series [25] deals with EML4-ALK (Homo sapiens), Q9UM73+Q9HC35 [L1152R]. The conditions noted are these: BaF3, time 3-5 weeks.
The test system of series [26] is BaF3. In words: animal or person. The settings on record: Mus musculus, BaF3, po, 192 h, read-out: TGI. This is another data set of the same source.
Series [27] concerns BaF3. In words: Antitumor activity against mouse BaF3 cells expressing native EML4-ALK implanted in mouse assessed as tumor growth inhibition at 50 mg/kg, po administered once daily and measured after 8 days relative to control. The conditions noted are these: BaF3, 192 h, time 8 day, read-out: TGI. The format is functional.
Series [28] has as its system EML4-ALK (Homo sapiens), Q9UM73+Q9HC35 [L1152R]. The conditions noted are these: BaF3, dose 1000.0 nmol/L, time 3-5 weeks.
For series [29], the system named is EML4-ALK (Homo sapiens), Q9UM73+Q9HC35 [UNDEFINED MUTATION]. The conditions noted are these: BaF3, dose 1000.0 nmol/L, time 3-5 weeks.
Series [30] concerns EML4-ALK (Homo sapiens), Q9UM73+Q9HC35 [L1198F]. The settings on record: BaF3, time 3-5 weeks.
Series [31] deals with EML4-ALK (Homo sapiens), Q9UM73+Q9HC35 [L1196M]. The settings on record: BaF3, dose 1000.0 nmol/L, time 3-5 weeks.
The subject of series [32] is EML4-ALK (Homo sapiens), Q9UM73+Q9HC35 [G1269A]. The settings on record: BaF3, dose 1000.0 nmol/L, time 3-5 weeks.
The subject of series [33] is EML4-ALK (Homo sapiens), Q9UM73+Q9HC35 [L1198F]. The conditions noted are these: BaF3, dose 500.0 nmol/L, time 3-5 weeks.
Series [34] relates to EML4-ALK (Homo sapiens), Q9UM73+Q9HC35 [S1206F]. The conditions noted are these: BaF3, time 3-5 weeks.
The test system of series [35] is EML4-ALK (Homo sapiens), Q9UM73+Q9HC35 [F1174V]. The conditions noted are these: BaF3, dose 200.0 nmol/L, time 3-5 weeks.
Series [36] relates to EML4-ALK (Homo sapiens), Q9UM73+Q9HC35 [F1174I]. The conditions noted are these: BaF3, dose 200.0 nmol/L, time 3-5 weeks.
Series [37] concerns EML4-ALK (Homo sapiens), Q9UM73+Q9HC35 [S1206F]. The conditions noted are these: BaF3, dose 1000.0 nmol/L, time 3-5 weeks.
Series [38] has as its system EML4-ALK (Homo sapiens), Q9UM73+Q9HC35 [S1206A]. The conditions noted are these: BaF3, dose 200.0 nmol/L, time 3-5 weeks.
Series [39] relates to EML4-ALK (Homo sapiens), Q9UM73+Q9HC35 [S1206Y]. The conditions noted are these: BaF3, time 3-5 weeks.
Series [40] has as its system EML4-ALK (Homo sapiens), Q9UM73+Q9HC35 [E1210K]. The conditions noted are these: BaF3, dose 1000.0 nmol/L, time 3-5 weeks.
In series [41] the test system is EML4-ALK (Homo sapiens), Q9UM73+Q9HC35 [I1171N]. The conditions noted are these: BaF3, dose 1000.0 nmol/L, time 3-5 weeks.
The subject of series [42] is EML4-ALK (Homo sapiens), Q9UM73+Q9HC35 [S1206Y]. The conditions noted are these: BaF3, dose 1000.0 nmol/L, time 3-5 weeks.

The source made the active and inactive calls. The rule behind the calls is not given here.

Consider `CCc1cc2c(cc1N1CCC(N3CCOCC3)CC1)C(C)(C)c1[nH]c3cc(C#N)ccc3c1C2=O` [ALECTINIB], for which the fraction unbound in series [1] and in [6] was 0.003 each time. The same compound gave an IC50 in series [2] of 2070 nM. Moreover, it took 7460 nM to reach the 90% level in [2] (IC90). In addition, the Activity entry in series [3] is reported as “Non-Toxic”; in series [5], 95%. This compound also had a Cave in series [4] of 8.817 µM. In addition, in series [7], the inhibition in vivo at 60 mg/kg worked out at 0%.

Turning to `Cc1cc(Nc2ncc(Cl)c(Nc3ccccc3S(=O)(=O)C(C)C)n2)c(OC(C)C)cc1C1CCNCC1` [CERITINIB], the Activity result in [8] is “Non-Toxic”. Moreover, the inhibition result in [9], in series [10], in [13], in series [15], in [16] and in series [18] was “Active” each time. Further, the inhibition entry in series [19], in [20], in series [22], in series [28], in [29] and in series [31] was “Active” throughout. Moreover, the inhibition entry in series [32], in [37], in series [40], in [41] and in series [42] was “Active” throughout. Also, the IC90 in series [11] was 1040 nM; in series [2] it was 2840 nM; in [17] it was 1230 nM; in series [24], 229 nM; in [25], 1270 nM; in [30], 1320 nM. Also, the IC90 in [34] and in series [39] was 99 nM in each case. The fraction unbound in series [12] and in series [14] was 0.028 in each case. Moreover, the IC50 in [2] was found to be 1670 nM. The inhibition result in series [21], in [23], in [33], in series [35], in [36] and in series [38] was “inactive” each time. The inhibition in vivo at 50 mg/kg was 14% in [26] and 97% in series [27].

The record behind these values is ChEMBL document CHEMBL5696443 (Clin Cancer Res, 2016).
